Data: patent publication US20250213627A1, “RECOMBINANT MICROORGANISM-BASED METHODS AND COMPOSITIONS FOR TREATMENT OF DISEASE” (Baylor College of Medicine, priority 2021, published 2025)
Entries after “also recorded” stand apart in the source; their conditions may differ.

Key:
[1] = tested on: Kv1.3 versus Kv1.1 and other ion channels; test: Selectivity for Kv1.3 over other channels by whole-cell patch-clamp; format: cell-based; conditions: FIG. 5E
Excerpt: FIGS. 5A-5E. […] FIG. 5A. Whole-cell Kv1.3 currents before (control) and after addition of 100 pM ShK-235. FIG. 5B. Dose-response effects of ShK-235 on Kv1.3 currents (n=4 cells per concentration). FIG. 5C. Dose-response of mKv1.3 block by synthetic ShK-235. N=3 cells per concentration. […] FIG. 5D. Representative traces of the block of mKv1.3 currents by 100 pM synthetic ShK-235. FIG. 5E. Selectivity of ShK-235 against Kv1.x channels determined by whole-cell patch-clamp.

[2] = tested on: DTH reaction mediated by antigen-specific TEM lymphocytes; test: Active delayed-type hypersensitivity (DTH) reaction against ovalbumin in the ear; format: in vivo, rat
Experimental: Then, it was assessed if LrS235 gavage could reduce a delayed-type hypersensitivity (DTH) reaction in the ear of rats, a local autoinflammation mediated by antigen-specific TEM lymphocytes. […] In contrast, treatment with LrGusA, capsules filled with ShK-235 or gelatin, and supernatants from the culture of the LrS235 had no effects on inflammation.
Induction and monitoring of an active delayed-type hypersensitivity reaction. Male and female rats were immunized in the flanks with 200 μl of a 1:1 emulsion of ovalbumin (Sigma, St. Louis, MO) in complete Freund's adjuvant (Difco/Becton Dickinson, Franklin Lakes, NJ)(25). After 7 days, under isoflurane anesthesia, the rats were challenged with ovalbumin dissolved in saline in the pinna of one ear; the collateral ear was injected with saline (49). Rats received either a single subcutaneous injection of 0.1 mg/kg ShK-235 or P6N vehicle, a single oral gavage of 1×10^9 cfus LrS235 or LrGusA, oral gavage of 1 ml supernatant of LrS235, or a capsule filled with ShK-235 or gelatin immediately before the ear challenge. The DTH reaction was measured 24 hours post-challenge as the thickness of the ear using a spring-loaded micrometer (Mitutoyo, Japan) and ear inflammation was determined by comparing the ear thickness of the ovalbumin-challenged with the saline-challenged ear from each (49). The animals were euthanized after the ear measurements.

anti-ShK-235 IgG = test: Immunogenicity ELISA on sera of CIA rats; format: in vivo, rat; conditions: sera at end of 21-day CIA trial
Experimental: (§1) To test if ShK-235 produced by LrS235 is immunogenic, the sera of rats were assessed at the end of the 21-day CIA trial shown in FIG. 8 for anti-ShK-235 IgG by ELISA assay. Plates coated with collagen II and HsTX1[R14A] were used as controls. HsTX1[R14A] is another peptide blocker of Kv1.3 with no sequence or structural homology to ShK-235.
Immunogenicity assays in rats with CIA. High-protein binding 96-well microplates (3855, ThermoFisher, MA, US) were coated overnight with 10 μg/ml of either porcine collagen II (20031, Chondrex, Woodinville, WI), ShK-235, or HsTX1[R14A], dissolved in PBS. Non-specific binding sites were blocked with PBS+5% skimmed milk and washed with PBS+0.05% Tween 20 before adding serum from the CIA rats, diluted in PBS. After washes, anti-rat IgG antibodies conjugated to horseradish peroxidase (1 μg/ml; Pierce catalog 31471, lot UA280036) were added to all the wells. One-step TMB-ELISA (34028, ThermoFisher, MA, US) was used to detect absorbance on a plate reader at 650 nm.

[3] = tested on: ShK-235 neutralizing antibodies; test: Antibody neutralization assay with CIA rat serum; format: cell-based; conditions: CIA rat serum samples
Experimental: as §1
Antibody neutralization assays. […] It was then added to the PBMCs loaded with CELLTRACE™ Violet (C34557, ThermoFisher, MA, US), and T cells proliferation was assessed as described above.

[4] = Pharmacokinetics following oral or subcutaneous administration in healthy and CIA rats; conditions: rat, in vivo
Experimental: Pharmacokinetics following oral or subcutaneous administration of LrS235. Pharmacokinetics following oral or subcutaneous administration of LrS235 are conducted to determine the efficacy of ShK-235 entry into the circulation after its delivery via LrS235, an oral capsule, or subcutaneous injection, and the duration for which the peptide can be detected in the blood after a single bolus or repeated administration to rats with the CIA model of RA. The circulating levels of ShK-235 are quantified with two complementary and well-established techniques, mass spectrometry and single-cell patch-clamp, as the inventors and others have done with ShK, ShK analogs, and other Kv1.3 channel modulators^6,16,37,47-49,65. Tandem liquid chromatography triple quadrupole mass spectrometry (LC-QQQ-MS) is commonly used to rapidly detect and quantify small molecules and peptides for pharmacokinetics. As a complement, single-cell patch-clamp allows for the detection and quantification of functional peptide. This quantitative method (FIG. 9) has a low pM detection limit for the functional peptide. This technique has been validated and used to detect ShK-235 in the circulation of rats administrated the peptide via a capsule or via LrS235 (FIG. 8). […]

CC[C@H](C)[C@@H]1NC(=O)[C@H](CO)NC(=O)[C@H](Cc2c[nH]cn2)NC(=O)[C@H](CCCCN)NC(=O)[C@@H]2CSSC[C@@H]3NC(=O)[C@H]([C@@H](C)O)NC(=O)[C@H](CCCCN)NC(=O)[C@H](CCCNC(=N)N)NC(=O)[C@H](CSSC[C@H](NC(=O)[C@H](CCCNC(=N)N)NC(=O)[C@H](CO)NC(=O)[C@H](CCCCN)NC(=O)[C@@H]4CCCN4C(=O)[C@H]([C@@H](C)CC)NC(=O)[C@H]([C@@H](C)O)NC(=O)[C@H](CC(=O)O)NC(=O)[C@H]([C@@H](C)CC)NC(=O)[C@@H](NC(=O)[C@H](CO)NC(=O)[C@@H](N)CCCNC(=N)N)CSSC[C@@H](C(=O)N[C@@H](C)C(=O)O)NC(=O)[C@H]([C@@H](C)O)NC(=O)CNC3=O)C(=O)N[C@@H]([C@@H](C)O)C(=O)N[C@@H](C)C(=O)N[C@@H](Cc3ccccc3)C(=O)N[C@@H](CCCCN)C(=O)N2)NC(=O)[C@H](Cc2ccccc2)NC(=O)[C@H](CO)NC(=O)[C@H](CC(C)C)NC(=O)[C@H](CCCNC(=N)N)NC(=O)[C@H](Cc2ccc(O)cc2)NC(=O)[C@H](CCCCN)NC1=O [ShK-235]
Selectivity for Kv1.3 over other channels [1]: ≥ 2,200 fold | Effect on ear inflammation ([2]; oral enteric-coated capsule filled with ShK-235): no effects | Reduction of ear inflammation compared with vehicle control ([2]; single subcutaneous injection 0.1 mg/kg): 58% | Anti-ShK-235 IgG titers / immunogenicity (anti-ShK-235 IgG): very low titers; also recorded: not immunogenic | Neutralization of ShK-235 by serum [3]: no neutralization | Detection of ShK-235 in the circulation [4]: detected
